From US11718616B2, “JAK kinase inhibitor compounds for treatment of respiratory disease” (THERAVANCE BIOPHARMA R&D IP, LLC, priority 2015, dated 2023) come the findings set out here.

A short description of data set [1]: Dynamic moisture sorption assessment. The note with it: humidity range of 5% to 90% relative humidity, about 25° C. The class given is physicochemical. As to the method:
Dynamic moisture sorption (DMS) measurement was performed using a VTI atmospheric microbalance, SGA-100 system (VTI Corp., Hialeah, Fla. 33016). A weighed sample was used and the humidity was lowest possible value (close to 0% RH) at the start of the analysis. The DMS analysis consisted of an initial drying step (˜0% RH) for 120 minutes, followed by two cycles of sorption and desorption with a scan rate of 5% RH/step over the humidity range of 5% RH to 90% RH. The DMS run was performed isothermally at 25° C.

Data set [2] concerns IL-13 induced pSTAT6 induction in lung tissue. The experiment in a line: Murine model of IL-13 induced pSTAT6 induction in lung tissue. The class given is in vivo, mouse. The note with it: for pSTAT6 inhibition in the pharmacodynamic assay: mouse lung, Assay 5 conditions; for lung concentration smaller than that of the corresponding compound of the invention by a factor of: mouse lung in pharmacodynamic assay, C-1 vs Example 1, C-2 vs 7, C-3 vs 13, C-4 vs 6. As to the method:
Il-13 is an important cytokine underlying the pathophysiology of asthma (Kudlacz et al. Eur. J Pharmacol, 2008, 582, 154-161). IL-13 binds to cell surface receptors activating members of the Janus family of kinases (JAK) which then phosphorylate STAT6 and subsequently activates further transcription pathways. In the described model, a dose of IL-13 was delivered locally into the lungs of mice to induce the phosphorylation of STAT6 (pSTAT6) which is then measured as the endpoint.
Adult balb/c mice from Harlan were used in the assay. On the day of study, animals were lightly anesthetized with isoflurane and administered either vehicle or test compound (0.5 mg/mL, 50 μL total volume over several breaths) via oral aspiration. Animals were placed in lateral recumbency post dose and monitored for full recovery from anesthesia before being returned to their home cage. Four hours later, animals were once again briefly anesthetized and challenged with either vehicle or IL-13 (0.03 μg total dose delivered, 50 μL total volume) via oral aspiration before being monitored for recovery from anesthesia and returned to their home cage. One hour after vehicle or IL-13 administration, lungs were collected for both pSTAT6 detection using an anti-pSTAT6 ELISA (rabbit mAb capture/coating antibody; mouse mAb detection/report antibody: anti-pSTAT6-pY641; secondary antibody: anti-mouse IgG-HRP) and analyzed for total drug concentration as described above in Assay 4.
Selected compounds of the invention were tested in the assay. Activity in the model is evidenced by a decrease in the level of pSTAT6 present in the lungs of treated animals at 5 hours compared to the vehicle treated, IL-13 challenged control animals. The difference between the control animals which were vehicle-treated, IL-13 challenged and the control animals which were vehicle-treated, vehicle challenged dictated the 0% and 100% inhibitory effect, respectively, in any given experiment.

For the next data set, the target named is JAK1 (Homo sapiens (Human), UniProt P23458). Kind of data set: LanthaScreen JAK biochemical assay, JAK1. The note with it: C-1 vs Example 1, C-2 vs 7, C-3 vs 13, C-4 vs 6.
Chain of JAK1 (P23458 whole entry): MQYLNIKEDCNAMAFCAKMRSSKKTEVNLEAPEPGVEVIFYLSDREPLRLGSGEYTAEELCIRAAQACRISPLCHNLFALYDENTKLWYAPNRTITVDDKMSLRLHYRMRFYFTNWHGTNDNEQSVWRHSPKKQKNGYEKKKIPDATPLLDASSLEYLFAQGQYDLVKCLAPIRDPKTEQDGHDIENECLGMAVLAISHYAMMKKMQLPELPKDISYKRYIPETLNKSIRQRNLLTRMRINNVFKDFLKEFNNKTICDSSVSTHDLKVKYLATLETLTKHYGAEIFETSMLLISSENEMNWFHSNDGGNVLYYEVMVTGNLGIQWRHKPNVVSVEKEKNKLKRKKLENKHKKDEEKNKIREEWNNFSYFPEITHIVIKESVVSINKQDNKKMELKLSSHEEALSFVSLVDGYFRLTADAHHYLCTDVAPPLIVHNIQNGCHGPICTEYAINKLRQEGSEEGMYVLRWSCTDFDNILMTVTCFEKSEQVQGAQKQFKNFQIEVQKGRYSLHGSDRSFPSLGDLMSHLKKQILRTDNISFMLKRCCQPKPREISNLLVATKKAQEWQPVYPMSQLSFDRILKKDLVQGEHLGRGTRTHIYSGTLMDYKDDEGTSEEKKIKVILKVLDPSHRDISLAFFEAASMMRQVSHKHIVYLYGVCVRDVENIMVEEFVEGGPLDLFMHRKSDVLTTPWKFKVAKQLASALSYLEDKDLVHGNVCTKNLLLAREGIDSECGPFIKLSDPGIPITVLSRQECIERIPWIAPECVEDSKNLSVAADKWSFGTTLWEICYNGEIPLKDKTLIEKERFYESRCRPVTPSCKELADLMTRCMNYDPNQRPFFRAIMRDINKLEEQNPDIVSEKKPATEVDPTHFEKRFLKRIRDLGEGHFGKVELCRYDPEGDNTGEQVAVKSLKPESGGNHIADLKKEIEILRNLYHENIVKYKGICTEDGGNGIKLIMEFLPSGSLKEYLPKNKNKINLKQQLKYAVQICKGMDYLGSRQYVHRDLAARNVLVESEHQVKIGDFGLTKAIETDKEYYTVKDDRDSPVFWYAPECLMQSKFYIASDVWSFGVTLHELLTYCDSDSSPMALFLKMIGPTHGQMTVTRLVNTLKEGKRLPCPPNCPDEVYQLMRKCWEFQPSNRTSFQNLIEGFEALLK

For `CCc1cc(O)c(F)cc1-c1ccc2c(-c3nc4c([nH]3)CCN(C3CCN(C)CC3)C4)n[nH]c2c1` [crystalline hydrate, 5-ethyl-2-fluoro-4-(3-(5-(1-methylpiperidin-4-yl)-4,5,6,7-tetrahydro-1H-imidazo[4,5-c]pyridin-2-yl)-1H-indazol-6-yl)phenol], the “weight gain (weight change) on moisture sorption” value in data set [1] is recorded as “less than 0.12%”.

With `CCc1cc(O)c(F)cc1-c1ccc2c(-c3nc4c([nH]3)CCN(CCNC3(C#N)CC3)C4)n[nH]c2c1` [Example 3-1], the “pSTAT6 inhibition in the pharmacodynamic assay” value in data set [2] is listed as “exceptions”.

For `CCc1cc(O)c(F)cc1-c1ccc2c(-c3nc4c([nH]3)CCN(CC3CCCOC3)C4)n[nH]c2c1` (centres unmarked) [Example C-3], in data set [2], the “lung concentration smaller than that of the corresponding compound of the invention by a factor of” value (from here on “lung concentration smaller than that”) is reported as 13. On JAK1, the “fold less potent than the corresponding compound of the invention in the enzyme assay” value is on record as 6 fold.

As to `CCc1cc(O)c(F)cc1-c1ccc2c(-c3nc4c([nH]3)CCN(C3CCC(C)CC3)C4)n[nH]c2c1` (centres unmarked) [Example C-4], the “lung concentration smaller than that” value in data set [2] stood at 23. Moreover, the “fold less potent than the corresponding compound of the invention in the enzyme assay” value on JAK1 is 2.5 fold.

As for `CCc1cc(O)c(F)cc1-c1ccc2c(-c3nc4c([nH]3)CCN(C3CC(C)C3)C4)n[nH]c2c1` (centres unmarked) [Example C-1, 5-Ethyl-2-fluoro-4-(3-(5-(3-methylcyclobutyl)-4,5,6,7-tetrahydro-1H-imidazo[4,5-c]pyridin-2-yl)-1H-indazol-6-yl)phenol], in data set [2], the “lung concentration smaller than that” value worked out at 36. On JAK1, the “fold less potent than the corresponding compound of the invention in the enzyme assay” value worked out at 2 fold.

As for `CCc1cc(O)c(F)cc1-c1ccc2c(-c3nc4c([nH]3)CCN(CCC(C)C)C4)n[nH]c2c1` [Example C-2], the “lung concentration smaller than that” value in data set [2] is recorded as 52. In addition, the “fold less potent than the corresponding compound of the invention in the enzyme assay” value at JAK1 was determined as 3 fold.

For `CCc1cc(O)c(F)cc1-c1ccc2c(-c3nc4c([nH]3)CCN(C3CN(C5CCS(=O)(=O)C5)C3)C4)n[nH]c2c1` (centres unmarked) [Example 1-15], the “pSTAT6 inhibition in the pharmacodynamic assay” value in data set [2] is reported as “exceptions”.
